Several values for one entry are separate records, joined by “and”; a condition that tells them apart may be missing. Equal entries are not always repeated.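 Tested at 5 concentrations; 48 h exposure; 96-well plates; endpoints linearly interpolated, else capped at highest concentration. GI50 marks 50% less growth. TGI: total growth inhibition.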
What was measured:
Assay in all cases: inhibition of tumour cell growth, NCI panel, 48 h
BT-549 breast = tested on: BT-549 breast
DU-145 prostate = tested on: DU-145 prostate
HOP-92 NSCLC = tested on: HOP-92 NSCLC
MCF7 breast = tested on: MCF7 breast
MOLT-4 leukemia = tested on: MOLT-4 leukemia
NCI-H460 lung = tested on: NCI-H460 lung
NCI/ADR-RES ovarian = tested on: NCI/ADR-RES ovarian
OVCAR-3 ovarian = tested on: OVCAR-3 ovarian
OVCAR-8 ovarian = tested on: OVCAR-8 ovarian
SK-MEL-5 melanoma = tested on: SK-MEL-5 melanoma
UACC-257 melanoma = tested on: UACC-257 melanoma

| Structure (SMILES) | TGI (BT-549 breast) | TGI (DU-145 prostate) | TGI (HOP-92 NSCLC) | TGI (MCF7 breast) | TGI (MOLT-4 leukemia) | TGI (NCI-H460 lung) | TGI (NCI/ADR-RES ovarian) [µM] | TGI (OVCAR-3 ovarian) | TGI (OVCAR-8 ovarian) | TGI (SK-MEL-5 melanoma) | TGI (UACC-257 melanoma) | GI50 (BT-549 breast) | GI50 (HOP-92 NSCLC) | GI50 (NCI-H460 lung) | GI50 (OVCAR-3 ovarian) | GI50 (SK-MEL-5 melanoma) | GI50 (MCF7 breast) [µM] | GI50 (NCI/ADR-RES ovarian) [µM] | GI50 (OVCAR-8 ovarian) |
| --- | --- | --- | --- | --- | --- | --- | --- | --- | --- | --- | --- | --- | --- | --- | --- | --- | --- | --- | --- |
| CCOC(=O)c1cccc(NC(=O)CCl)c1 | 17.9 µM | 22.7 µM | 16.9 µM | 6.81 µM | 27.2 µM | 5.37 µM | 22.7 | 4.44 µM | > 30.1 µM | 3.69 µM | 14.1 µM | – | – | – | – | – | – | – | – |
| C=CCC1(O)c2ccccc2C(=O)c2c(O)ccc(O)c21 (configuration not stated) | 36.3 µM | 38 µM | 41.1 µM | 26.3 µM | > 58 µM | 18.3 µM | 12.1 | > 57.6 µM | 53.7 µM | 23.1 µM | 19 µM | – | – | – | – | – | – | – | – |
| Cc1ccc(C2CC(=O)CC(c3ccc(C)cc3)C23C(=O)NC(=O)NC3=O)cc1 (configuration not stated) | > 100 µM | > 100 µM | > 100 µM | > 100 µM | > 100 µM | > 100 µM | > 100 | > 100 µM | > 100 µM | > 100 µM | > 100 µM | – | – | – | – | – | – | – | – |
| Cc1ccc(C)n1-c1ccccc1C1SCCCS1 | > 100 µM | > 100 µM | > 100 µM | > 100 µM | > 100 µM | > 100 µM | > 100 | > 100 µM | > 100 µM | > 100 µM | > 100 µM | – | – | – | – | – | – | – | – |
| O=C1Oc2ccccc2C(=O)/C1=C/N1C(=O)N/C(=C\c2ccccc2O)C1=O | > 100 µM | > 100 µM | > 91 µM | > 100 µM | > 100 µM | > 100 µM | > 100 | > 100 µM | > 100 µM | > 100 µM | > 100 µM | – | – | – | – | – | – | – | – |
| O=c1c2ccccc2oc2nc3n(c(=O)c12)CCCS3 | > 100 µM | > 100 µM | > 100 µM | > 100 µM | > 100 µM | > 100 µM | > 100 | > 100 µM | > 100 µM | > 100 µM | > 100 µM | – | – | – | – | – | – | – | – |
| O=C1NC(N/N=C\C(O)C(O)C(O)CO)=N/C1=C/c1ccccc1 (configuration not stated) | > 100 µM and 99.8 µM | > 100 µM | > 100 µM | > 100 µM | > 100 µM and 54.3 µM | > 100 µM | > 100 | > 100 µM | > 100 µM | > 100 µM | > 100 µM | > 100 µM and 27.4 µM | > 100 µM and 45 µM | > 100 µM and 43.4 µM | > 100 µM and 47.6 µM | > 100 µM and 38.9 µM | – | – | – |
| CC(C)(C)OC(=O)CN1CCNCCNCC1 | > 100 µM | > 100 µM | > 100 µM | > 100 µM | > 100 µM | > 100 µM | > 100 | > 100 µM | > 100 µM | > 100 µM | > 100 µM | – | – | – | – | – | – | – | – |
| O=S(=O)(Oc1ccc2oc3ccccc3c2c1-c1c(OS(=O)(=O)C(F)(F)F)ccc2oc3ccccc3c12)C(F)(F)F | > 100 µM | > 100 µM | > 100 µM | > 100 µM | > 100 µM | > 100 µM | > 100 | > 100 µM | > 100 µM | > 100 µM | > 100 µM | – | – | – | – | – | – | – | – |
| c1ccc(CNC2CC(NCc3ccccn3)CC(NCc3ccccn3)C2)nc1 (configuration not stated) | 17.1 µM and 10.5 µM and 38 µM | 8.52 µM and 17.1 µM | 9.06 µM and 8.87 µM and 15.2 µM | 6.31 µM and 8.62 µM and 3.65 µM | 23.4 µM and 24.8 µM and 33.1 µM | 7.07 µM and 12 µM | > 100 | 9.72 µM and 12.1 µM and 15.9 µM | 8.59 µM and 25 µM and 9.53 µM | 5.52 µM and 7.49 µM and 3.68 µM | 21.4 µM and 9.81 µM | 18.2 µM | – | – | 4.59 µM | 1.88 µM | 1.89 | > 100 | 2.88 µM and 7.94 µM and 3.62 µM |
| C=C(C)[C@@H]1CC[C@]2(C(=O)O)CC[C@]3(C)[C@H](CC[C@@H]4[C@@]5(C)CC(=O)C(C)(C)[C@@H]5CC[C@]43C)[C@@H]12 | > 25 µM | > 25 µM | > 25 µM | > 25 µM | 14.5 µM | 10.7 µM | > 25 | 21.4 µM | > 25 µM | 13.3 µM | 22.3 µM | – | – | – | – | – | – | – | – |
| CCc1nn(CN2CCN(C)CC2)c(=S)n1/N=C\c1ccc(-c2ccc([N+](=O)[O-])cc2)o1 | > 100 µM | > 100 µM | > 100 µM | > 100 µM | > 100 µM | > 100 µM | 73.2 | > 100 µM | > 100 µM | > 100 µM | > 100 µM | – | – | – | – | – | – | – | – |
| CCOC(=O)c1cn(-c2ccccc2)c(=S)n2c1nc1ccccc12 | > 100 µM | > 100 µM | 47.7 µM | > 100 µM | 17.5 µM | > 100 µM | > 100 | > 100 µM | > 100 µM | > 89.6 µM | > 100 µM | – | – | – | – | – | – | – | – |
| CN1C/C(=C\c2cccs2)C2=NC(=S)NC(c3cccs3)C2C1 (configuration not stated) | > 100 µM | > 100 µM | > 100 µM | > 100 µM | 92 µM | > 100 µM | > 100 | > 100 µM | > 100 µM | > 100 µM | > 100 µM | – | – | – | – | – | – | – | – |
| CC1=NN(C(=O)CSc2nnc(SCC(=O)N3N=C(C)CC3(O)c3ccccc3)s2)C(O)(c2ccccc2)C1 (configuration not stated) | 47 µM | > 100 µM | > 100 µM | > 100 µM | > 100 µM | > 100 µM | 68.3 | > 100 µM | > 100 µM | > 100 µM | > 100 µM | – | – | – | – | – | – | – | – |
| CC[C@@]1(O)C(=O)OCc2c1cc1n(c2=O)Cc2c-1nc1ccccc1c2/C=N\NC(=O)C(N)CC(C)C (some centres not stated) | > 100 µM | > 100 µM | 5.35 µM | > 100 µM | 0.106 µM | 1.26 µM | 0.856 | 2.3 µM | 1.44 µM | 0.0807 µM | 1.81 µM | – | – | – | – | – | – | – | – |

Reference: PubChem BioAssay (NCI)
